# From patent US10370370B2, “Aminobenzisoxazole compounds as agonists of α7-nicotinic acetylcholine receptors” (FORUM PHARMACEUTICALS, INC., priority 2015, dated 2019)
# Where a name gives a salt, the structure may show the parent alone.
# Molecular target: human α7 nAChRs transiently expressed in Xenopus laevis oocytes (Homo sapiens (Human), UniProt P36544)
# Assay: Oocyte Electrophysiology Screen (two-electrode voltage-clamp, HiQScreen)
# Type: cell-based
# Details: test compound at 0.01 mM, response as percentage of that evoked by 0.2 mM ACh; hydrochloride
# Description: Oocyte Electrophysiology Screen (% ACh @ 10 μM Oocyte)
# The Oocyte Electrophysiology Screen studies were performed under contract by HiQScreen Geneva, Switzerland. All experiments were carried out at human α7 nAChRs transiently expressed in Xenopus laevis oocytes using the method of cDNA expression. Currents evoked by acetylcholine or other agonist ligands were recorded using the standard two-electrode voltage-clamp configuration (TEVC). X. laevis oocytes were prepared and injected using standard procedures. Briefly, ovaries were harvested from X. laevis females that were deeply anesthetized and pithed following the animal rights rule from the Geneva canton. A small piece of ovary was isolated for immediate preparation while the remaining part was placed at 4° C. in a sterile Barth solution containing in mM: NaCl 88, KCl 1, NaHCO3 2.4, HEPES 10, MgSO4.7H2O 0.82, Ca(NO3)2.4H2O 0.33, CaCl2.6H2O 0.41, at pH 7.4, and supplemented with 20 μg/mL of kanamycin, 100 unit/mL penicillin and 100 μg/mL streptomycin. On the second day following dissociation, oocytes were injected with 2 ng of cDNA per oocyte containing the gene encoding human α7 nicotinic acetylcholine receptor subunits using an automated injector (Hogg et al., 2008). All recordings were performed at 18° C. and cells were superfused with OR2 medium containing in mM: NaCl 82.5, KCl 2.5, HEPES 5, CaCl2.2H2O 2.5, pH 7.4. Cells were held at −80 mV. Data were filtered at 10 Hz, captured at 100 Hz and analyzed using proprietary data acquisition and analysis software running under Matlab (Mathworks Inc.).
# Experimental Protocol and Analysis
# After establishing a baseline transmembrane current, acetylcholine (ACh) was applied for 5 seconds at a concentration of 0.2 mM to establish a control ACh-evoked current response. Following a wash period of 90 s in OR2 medium (free of ACh), cells were then exposed for 30 s to the test compound applied at 0.01 mM. The same reference ACh test pulse was immediately given at the end of the compound exposure and again after 90 s of recovery in OR2 Medium (free of ACh or test compound). All data were determined in triplicate. The response evoked by the test compound was expressed as a percentage of that evoked by ACh: Response (% ACh)=100×(Itest/IACh) where Itest is the peak inward current measured during exposure to 0.01 mM of test compound and IACh is the peak inward current measured in the presence of ACh.
# Results are provided in Table 2 (reported as % ACh @ 10 μM Oocyte).
# Chain of human α7 nAChRs transiently expressed in Xenopus laevis oocytes (P36544 23-502 limits assumed): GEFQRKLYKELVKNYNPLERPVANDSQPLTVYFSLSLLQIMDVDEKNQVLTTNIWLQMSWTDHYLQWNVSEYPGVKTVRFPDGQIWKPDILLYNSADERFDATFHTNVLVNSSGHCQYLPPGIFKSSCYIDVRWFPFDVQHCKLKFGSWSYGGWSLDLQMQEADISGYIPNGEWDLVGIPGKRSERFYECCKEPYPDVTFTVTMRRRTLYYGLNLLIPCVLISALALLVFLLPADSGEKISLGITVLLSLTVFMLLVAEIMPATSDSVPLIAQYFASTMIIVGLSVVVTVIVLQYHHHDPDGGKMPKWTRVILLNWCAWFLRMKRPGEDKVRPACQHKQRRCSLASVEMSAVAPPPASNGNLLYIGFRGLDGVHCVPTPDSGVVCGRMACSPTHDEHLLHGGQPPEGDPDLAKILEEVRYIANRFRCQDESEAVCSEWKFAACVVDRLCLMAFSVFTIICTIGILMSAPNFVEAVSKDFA
row,Structure (SMILES),% ACh @ 10 μM Oocyte [% ACh]
1,"c1ccc2c(NC3CN4CCC3CC4)noc2c1 (single isomer, unassigned; enantiomer1) [Compound 1-P1]",483
2,"Clc1cccc2c(NC3CN4CCC3CC4)noc12 (single isomer, unassigned; enantiomer1) [Compound 2-P1, 7-chloro-N-(quinuclidin-3-yl)benzo[d]isoxazol-3-amine-enantiomer1 hydrochloride]",418
3,"Clc1ccc2c(NC3CN4CCC3CC4)noc2c1 (single isomer, unassigned; enantiomer1) [Compound 3-P1, 6-chloro-N-(quinuclidin-3-yl)benzo[d]isoxazol-3-amine-enantiomer1 hydrochloride]",465
4,"Clc1ccc2onc(NC3CN4CCC3CC4)c2c1 (single isomer, unassigned; enantiomer1) [Compound 4-P1, 5-chloro-N-(quinuclidin-3-yl)benzo[d]isoxazol-3-amine-enantiomer1 hydrochloride]",326
5,"Cc1ccc2c(NC3CN4CCC3CC4)noc2c1 (single isomer, unassigned; enantiomer1) [Compound 5-P1, 6-methyl-N-(quinuclidin-3-yl)benzo[d]isoxazol-3-amine-enantiomer1 hydrochloride]",548
6,"c1cc2c(NC3CN4CCC3CC4)noc2cc1C1CC1 (single isomer, unassigned; enantiomer1) [Compound 6-P1, 6-cyclopropyl-N-(quinuclidin-3-yl)benzo[d]isoxazol-3-amine-enantiomer1 hydrochloride]",157
7,"COc1ccc2c(NC3CN4CCC3CC4)noc2c1 (single isomer, unassigned; enantiomer1) [Compound 7-P1, 6-methoxy-N-(quinuclidin-3-yl)benzo[d]isoxazol-3-amine-enantiomer1 hydrochloride]",326
8,"FC(F)(F)c1ccc2c(NC3CN4CCC3CC4)noc2c1 (single isomer, unassigned; enantiomer1) [Compound 8-P1, N-(quinuclidin-3-yl)-6-(trifluoromethyl)benzo[d]isoxazol-3-amine-enantiomer1 hydrochloride]",26
9,"c1ccc2c(NC3CN4CCC3CC4)noc2c1 (single isomer, unassigned; enantiomer2) [Compound 1-P2, N-(quinuclidin-3-yl)benzo[d]isoxazol-3-amine-enantiomer2 hydrochloride]",206
10,"Clc1cccc2c(NC3CN4CCC3CC4)noc12 (single isomer, unassigned; enantiomer2) [Compound 2-P2, 7-chloro-N-(quinuclidin-3-yl)benzo[d]isoxazol-3-amine-enantiomer2 hydrochloride]",363
11,"Clc1ccc2c(NC3CN4CCC3CC4)noc2c1 (single isomer, unassigned; enantiomer2) [Compound 3-P2, 6-chloro-N-(quinuclidin-3-yl)benzo[d]isoxazol-3-amine-enantiomer2 hydrochloride]",379
12,"Clc1ccc2onc(NC3CN4CCC3CC4)c2c1 (single isomer, unassigned; enantiomer2) [Compound 4-P2, 5-chloro-N-(quinuclidin-3-yl)benzo[d]isoxazol-3-amine-enantiomer2 hydrochloride]",17
13,"Cc1ccc2c(NC3CN4CCC3CC4)noc2c1 (single isomer, unassigned; enantiomer2) [Compound 5-P2, 6-methyl-N-(quinuclidin-3-yl)benzo[d]isoxazol-3-amine-enantiomer2 hydrochloride]",645
14,"c1cc2c(NC3CN4CCC3CC4)noc2cc1C1CC1 (single isomer, unassigned; enantiomer2) [Compound 6-P2, 6-cyclopropyl-N-(quinuclidin-3-yl)benzo[d]isoxazol-3-amine-enantiomer2 hydrochloride]",355
15,"COc1ccc2c(NC3CN4CCC3CC4)noc2c1 (single isomer, unassigned; enantiomer2) [Compound 7-P2, 6-methoxy-N-(quinuclidin-3-yl)benzo[d]isoxazol-3-amine-enantiomer2 hydrochloride]",427
16,"FC(F)(F)c1ccc2c(NC3CN4CCC3CC4)noc2c1 (single isomer, unassigned; enantiomer2) [Compound 8-P2, N-(quinuclidin-3-yl)-6-(trifluoromethyl)benzo[d]isoxazol-3-amine-enantiomer2 hydrochloride]",221

# Molecular target: recombinantly expressed human α7-nAChR (Homo sapiens (Human), UniProt P36544)
# Assay: not given
# Details: [125I] α-BTX radioligand, read-out: Ki (lit); cited from earlier work
# Chain of recombinantly expressed human α7-nAChR (P36544 23-502 limits assumed): as above
row,Structure (SMILES),Ki [nM]
1,Cc1ccc(-c2ccc(OC3CN4CCC3CC4)cn2)cc1 (stereo not shown) [AQW051],28

# Molecular target: human 5-HT3 serotonin receptors (Homo sapiens (Human), UniProt P46098)
# Assay: [3H]BRL 43694 competition binding (Cerep)
# Details: CHO cell membranes expressing human 5-HT3 receptors
# Chain of human 5-HT3 serotonin receptors (P46098 24-478): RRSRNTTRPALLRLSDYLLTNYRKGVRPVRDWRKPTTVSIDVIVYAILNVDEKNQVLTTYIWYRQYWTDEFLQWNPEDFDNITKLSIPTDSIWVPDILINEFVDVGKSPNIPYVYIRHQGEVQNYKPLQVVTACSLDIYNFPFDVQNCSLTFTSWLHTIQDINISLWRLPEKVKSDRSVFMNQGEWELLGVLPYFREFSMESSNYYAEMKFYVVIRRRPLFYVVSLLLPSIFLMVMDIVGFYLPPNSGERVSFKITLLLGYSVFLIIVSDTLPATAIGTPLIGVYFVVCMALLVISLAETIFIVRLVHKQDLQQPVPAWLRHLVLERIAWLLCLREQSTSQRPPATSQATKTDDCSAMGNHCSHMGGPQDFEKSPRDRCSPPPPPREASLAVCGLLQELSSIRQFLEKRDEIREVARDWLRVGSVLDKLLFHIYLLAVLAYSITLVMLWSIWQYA
row,Structure (SMILES),Ki [nM]
1,"Cc1c(Cl)ccc2c(N[C@H]3CN4CCC3CC4)noc12 [Compound (R)-23, (R)-6-chloro-7-methyl-N-(quinuclidin-3-yl)benzo[d]isoxazol-3-amine hydrochloride]",190

# Molecular target: human α7 nAChR (Homo sapiens (Human), UniProt P36544)
# Assay: not given
# Type: binding
# Details: above described assay provided by Cerep
# Chain of human α7 nAChR (P36544 23-502 limits assumed): as the sequence (P36544 23-502 limits assumed) above
row,Structure (SMILES),Ki [nM]
1,Cc1ccc(-c2ccc(OC3CN4CCC3CC4)cn2)cc1 (stereo not shown) [AQW051],255
